Source: US8592404B2, “Derivatives of porphyrin, particularly chlorins and/or bacteriochlorins, and uses thereof in photodynamic therapy” (Universidade de Coimbra, priority 2004, dated 2013)
Like-named read-outs stand apart in the source and are kept apart here.

Key:
[1] = Fluorescence quantum yield; format: physicochemical
[2] = Lifetime of the triplet state in aqueous solution; format: physicochemical
[3] = Quantum yield of the formation of singlet oxygen (phosphorescence at 1270 nm versus reference photosensitizer TPPS); format: physicochemical; settings: deuterated aqueous solution
From the text: According to the present invention, the reference photosensitizer used in meso-tetrakis(3-sulfophenyl)porphyrin (TPPS) whereof the value for the quantum yield of the formation of singlet oxygen in deuterated water is 0.64 at 7.4 pH (photochem. Photobiol, 70: 391, 1999).

[4] = Lifetime of singlet oxygen; format: physicochemical; settings: in deuterated water
[5] = deuterated water, 7.4 pH; cited from earlier work

Fluorescence quantum yield [1] | Lifetime of the triplet state ([2]; air-saturated aqueous solution) [μs] | Lifetime of the triplet state ([2]; nitrogen-saturated aqueous solution) [μs] | Lifetime of singlet oxygen [4] [μs] | Compound | Quantum yield of the formation of singlet oxygen [3] | Quantum yield of the formation of singlet oxygen [5]
0.013 | 3.88 | 235 | 65 | bacteriochlorin | greater than 30% | –
– | – | – | – | O=S(=O)(O)c1cccc(-c2c3nc(c(-c4cccc(S(=O)(=O)O)c4)c4ccc([nH]4)c(-c4cccc(S(=O)(=O)O)c4)c4nc(c(-c5cccc(S(=O)(=O)O)c5)c5ccc2[nH]5)C=C4)C=C3)c1 [TPPS, meso-tetrakis(3-sulfophenyl)porphyrin] | – | 0.64
